From ChEMBL document CHEMBL4834444, “Discovery of novel N-1 substituted pyrazolopyrimidinones as potent, selective PDE2 inhibitors” (Bioorg Med Chem Lett, 2021) come the findings set out here.

For orientation: IC50 means the point on the concentration scale where inhibition reaches its midpoint. As a reminder, the clearance is a measure of how efficiently the substance is removed, as volume per time. The term half-life denotes the time in which the quantity being followed falls by half. What is called MRT is the average time that molecules of a dose stay in the body. In general, inhibition refers to the percentage by which the read-out fell short of the control. As usually defined, the fraction unbound is free concentration divided by total concentration.

Values after ≈ are worked out from the molar mass of the structure shown.

The nature of series [1]: Inhibition of human PDE1.
The nature of series [2]: Inhibition of human PDE3.
Series [3] deals with Phosphodiesterase 4 (Homo sapiens, UniProt P27815+Q08499+Q07343+Q08493). In words: Inhibition of human PDE4. It is filed as protein assay.
Series [4] has as its target cGMP-specific 3',5'-cyclic phosphodiesterase (Homo sapiens, UniProt O76074). In words: Inhibition of human PDE5.
Series [5] addresses Phosphodiesterase 6. Kind of series: Inhibition of human PDE6. It is filed as protein assay.
The target in series [6] is Phosphodiesterase 7 (Homo sapiens, UniProt Q13946+Q9NP56). Kind of series: Inhibition of human PDE7. It is filed as protein assay.
Series [7] is described as follows: Inhibition of human PDE8.
The target of series [8] is High affinity cGMP-specific 3',5'-cyclic phosphodiesterase 9A (Homo sapiens, UniProt O76083). Kind of series: Inhibition of human PDE9.
Series [9] deals with cAMP and cAMP-inhibited cGMP 3',5'-cyclic phosphodiesterase 10A (Homo sapiens, UniProt Q9Y233). Kind of series: Inhibition of human PDE10.
The target in series [10] is Dual 3',5'-cyclic-AMP and -GMP phosphodiesterase 11A (Homo sapiens, UniProt Q9HCR9). Kind of series: Inhibition of human PDE11.
A short description of series [11]: Plasma clearance in rat. It is filed as ADME.
Series [12] is described as follows: Half life in rat. It is filed as ADME. The conditions noted are these: in vivo.
The nature of series [13]: Mean residence time in rat. It is filed as ADME. The conditions noted are these: in vivo.
A short description of series [14]: Kinetic solubility of compound at pH 2. It is filed as physicochemical. The conditions noted are these: buffer, read-out: Kinetic_solubility.
The nature of series [15]: Kinetic solubility of compound in FaSSIF. Type of series: physicochemical. The conditions noted are these: read-out: Kinetic_solubility.
Series [16] can be described thus: Kinetic solubility of compound at pH 7. It is filed as physicochemical. The conditions noted are these: buffer, read-out: Kinetic_solubility.
Series [17] addresses Cytochrome P450 2D6 (Homo sapiens, UniProt P10635). In words: Inhibition of CYP2D6 (unknown origin). It is filed as ADME.
The target in series [18] is Cytochrome P450 3A4 (Homo sapiens, UniProt P08684). In words: Inhibition of CYP3A4 (unknown origin). Type of series: ADME.
Series [19] has as its target Cytochrome P450 2C9 (Homo sapiens, UniProt P11712). Kind of series: Inhibition of CYP2C9 (unknown origin). Type of series: ADME.
Series [20] concerns the target T1, PXR (nuclear receptor subfamily 1 group I member 2) (Homo sapiens, UniProt O75469).
T1 sequence (O75469 whole entry): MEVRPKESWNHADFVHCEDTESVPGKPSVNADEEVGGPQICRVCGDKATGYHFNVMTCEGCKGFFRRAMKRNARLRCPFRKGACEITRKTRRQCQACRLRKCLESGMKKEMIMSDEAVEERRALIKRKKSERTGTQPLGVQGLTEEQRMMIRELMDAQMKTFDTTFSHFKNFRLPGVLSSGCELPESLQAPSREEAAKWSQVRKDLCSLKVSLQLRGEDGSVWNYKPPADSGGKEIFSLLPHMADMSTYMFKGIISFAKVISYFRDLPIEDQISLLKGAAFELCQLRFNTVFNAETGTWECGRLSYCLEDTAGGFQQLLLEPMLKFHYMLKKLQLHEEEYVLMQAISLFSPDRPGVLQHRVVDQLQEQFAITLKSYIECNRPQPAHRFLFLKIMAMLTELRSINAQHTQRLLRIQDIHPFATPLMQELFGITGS
In words: Inhibition of human PXR at 10 uM.

Series [21] in a line: Plasma protein binding in rat assessed as unbound fraction. It is filed as ADME, cell-free.
Series [22] can be described thus: Plasma protein binding in rhesus monkey assessed as unbound fraction. It is filed as ADME, cell-free, Macaca mulatta.
Series [23] can be described thus: Plasma protein binding in human assessed as unbound fraction. It is filed as ADME, cell-free.
For series [24], the species on record is Homo sapiens. Kind of series: Inhibition of Ion channel (unknown origin).

Cytochrome P450 3A4, sequence (P08684 whole entry): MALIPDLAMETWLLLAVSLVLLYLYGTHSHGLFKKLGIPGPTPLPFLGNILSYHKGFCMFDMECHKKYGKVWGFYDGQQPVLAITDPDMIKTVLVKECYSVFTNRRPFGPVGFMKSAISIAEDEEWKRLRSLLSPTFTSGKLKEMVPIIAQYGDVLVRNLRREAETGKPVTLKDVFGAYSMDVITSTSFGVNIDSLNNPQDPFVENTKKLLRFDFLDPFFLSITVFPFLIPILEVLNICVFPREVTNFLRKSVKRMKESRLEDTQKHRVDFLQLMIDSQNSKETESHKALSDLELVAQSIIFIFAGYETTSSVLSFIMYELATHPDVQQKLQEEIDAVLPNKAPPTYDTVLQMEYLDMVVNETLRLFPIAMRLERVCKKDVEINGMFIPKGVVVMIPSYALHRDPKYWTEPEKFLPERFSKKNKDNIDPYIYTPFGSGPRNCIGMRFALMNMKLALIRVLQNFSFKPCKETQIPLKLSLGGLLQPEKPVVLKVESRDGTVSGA
High affinity cGMP-specific 3',5'-cyclic phosphodiesterase 9A, sequence (O76083 whole entry): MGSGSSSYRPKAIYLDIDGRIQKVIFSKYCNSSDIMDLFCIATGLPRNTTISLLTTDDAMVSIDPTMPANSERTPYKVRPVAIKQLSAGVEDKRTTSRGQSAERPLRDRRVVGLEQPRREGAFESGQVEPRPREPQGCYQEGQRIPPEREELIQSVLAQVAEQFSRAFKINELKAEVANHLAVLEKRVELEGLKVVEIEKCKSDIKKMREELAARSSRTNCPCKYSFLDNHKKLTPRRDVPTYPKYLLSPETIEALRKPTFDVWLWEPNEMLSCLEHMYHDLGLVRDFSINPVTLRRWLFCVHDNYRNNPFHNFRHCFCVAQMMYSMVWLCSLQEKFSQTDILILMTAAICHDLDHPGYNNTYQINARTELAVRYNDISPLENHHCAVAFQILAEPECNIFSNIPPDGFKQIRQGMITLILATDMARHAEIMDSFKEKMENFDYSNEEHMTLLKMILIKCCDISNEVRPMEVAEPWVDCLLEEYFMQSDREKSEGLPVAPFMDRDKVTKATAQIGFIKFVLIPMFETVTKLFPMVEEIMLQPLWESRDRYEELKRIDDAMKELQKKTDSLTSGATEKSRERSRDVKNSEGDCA
Cytochrome P450 2D6, sequence (P10635 whole entry): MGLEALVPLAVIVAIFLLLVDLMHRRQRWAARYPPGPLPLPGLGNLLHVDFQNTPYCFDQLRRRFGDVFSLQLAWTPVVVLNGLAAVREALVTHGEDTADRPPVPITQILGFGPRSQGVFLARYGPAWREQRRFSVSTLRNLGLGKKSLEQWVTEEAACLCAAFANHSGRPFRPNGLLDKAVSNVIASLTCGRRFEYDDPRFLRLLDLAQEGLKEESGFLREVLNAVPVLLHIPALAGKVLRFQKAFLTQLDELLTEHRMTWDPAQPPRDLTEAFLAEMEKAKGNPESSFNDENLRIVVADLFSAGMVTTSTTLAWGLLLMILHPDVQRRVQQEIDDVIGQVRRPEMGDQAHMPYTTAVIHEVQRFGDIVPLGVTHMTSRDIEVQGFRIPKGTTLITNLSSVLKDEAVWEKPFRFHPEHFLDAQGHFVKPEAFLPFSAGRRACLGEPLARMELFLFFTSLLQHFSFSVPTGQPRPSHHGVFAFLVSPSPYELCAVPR
cAMP and cAMP-inhibited cGMP 3',5'-cyclic phosphodiesterase 10A, sequence (Q9Y233 whole entry): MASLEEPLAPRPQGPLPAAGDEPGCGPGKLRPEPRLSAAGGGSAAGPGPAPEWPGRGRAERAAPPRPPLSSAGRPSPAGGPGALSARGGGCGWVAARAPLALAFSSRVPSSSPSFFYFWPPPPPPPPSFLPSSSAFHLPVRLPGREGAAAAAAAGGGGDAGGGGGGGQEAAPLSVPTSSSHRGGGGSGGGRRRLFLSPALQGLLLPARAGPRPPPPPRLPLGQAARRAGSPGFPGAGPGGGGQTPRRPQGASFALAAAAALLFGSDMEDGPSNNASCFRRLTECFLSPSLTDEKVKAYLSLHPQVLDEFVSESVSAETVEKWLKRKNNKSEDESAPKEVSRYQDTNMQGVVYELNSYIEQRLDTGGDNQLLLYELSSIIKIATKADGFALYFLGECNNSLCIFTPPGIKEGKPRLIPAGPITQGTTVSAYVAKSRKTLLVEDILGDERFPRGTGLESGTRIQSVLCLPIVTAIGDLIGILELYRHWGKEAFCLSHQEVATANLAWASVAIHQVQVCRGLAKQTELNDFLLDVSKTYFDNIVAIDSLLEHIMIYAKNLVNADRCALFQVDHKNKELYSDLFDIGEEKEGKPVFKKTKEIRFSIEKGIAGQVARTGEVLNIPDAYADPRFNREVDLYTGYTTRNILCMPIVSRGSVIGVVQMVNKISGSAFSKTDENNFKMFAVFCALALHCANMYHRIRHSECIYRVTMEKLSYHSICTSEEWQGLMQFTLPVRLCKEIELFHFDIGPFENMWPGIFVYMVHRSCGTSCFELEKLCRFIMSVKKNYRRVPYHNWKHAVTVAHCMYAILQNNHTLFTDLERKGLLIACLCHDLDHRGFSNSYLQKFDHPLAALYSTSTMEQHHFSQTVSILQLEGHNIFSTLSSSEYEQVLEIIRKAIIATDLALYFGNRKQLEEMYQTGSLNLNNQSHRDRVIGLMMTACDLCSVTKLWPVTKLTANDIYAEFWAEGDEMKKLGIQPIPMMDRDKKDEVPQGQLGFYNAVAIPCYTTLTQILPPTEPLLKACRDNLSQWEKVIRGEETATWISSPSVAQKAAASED
Dual 3',5'-cyclic-AMP and -GMP phosphodiesterase 11A, sequence (Q9HCR9 whole entry): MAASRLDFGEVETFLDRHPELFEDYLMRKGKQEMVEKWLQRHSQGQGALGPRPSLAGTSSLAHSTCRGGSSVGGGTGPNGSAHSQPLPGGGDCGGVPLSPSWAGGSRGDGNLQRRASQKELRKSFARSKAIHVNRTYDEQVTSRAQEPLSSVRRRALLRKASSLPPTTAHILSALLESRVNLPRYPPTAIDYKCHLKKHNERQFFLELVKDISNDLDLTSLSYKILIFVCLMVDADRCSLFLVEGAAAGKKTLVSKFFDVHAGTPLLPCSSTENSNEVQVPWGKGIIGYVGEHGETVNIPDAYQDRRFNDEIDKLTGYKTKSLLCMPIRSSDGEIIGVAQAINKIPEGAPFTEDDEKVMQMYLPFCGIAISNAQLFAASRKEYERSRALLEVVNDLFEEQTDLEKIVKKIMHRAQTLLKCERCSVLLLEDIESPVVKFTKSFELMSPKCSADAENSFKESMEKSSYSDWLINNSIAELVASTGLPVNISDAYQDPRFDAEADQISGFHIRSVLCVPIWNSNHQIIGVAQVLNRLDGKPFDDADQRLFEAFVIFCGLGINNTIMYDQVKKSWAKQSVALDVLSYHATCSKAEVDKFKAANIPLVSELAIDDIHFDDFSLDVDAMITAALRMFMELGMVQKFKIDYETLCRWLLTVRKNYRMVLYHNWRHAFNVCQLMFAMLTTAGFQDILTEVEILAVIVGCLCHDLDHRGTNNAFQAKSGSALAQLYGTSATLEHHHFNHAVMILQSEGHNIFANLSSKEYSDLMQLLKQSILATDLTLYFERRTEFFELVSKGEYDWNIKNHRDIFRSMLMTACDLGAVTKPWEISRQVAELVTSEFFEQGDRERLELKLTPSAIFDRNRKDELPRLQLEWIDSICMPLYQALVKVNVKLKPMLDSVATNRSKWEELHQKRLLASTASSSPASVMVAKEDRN
Cytochrome P450 2C9, sequence (P11712 whole entry): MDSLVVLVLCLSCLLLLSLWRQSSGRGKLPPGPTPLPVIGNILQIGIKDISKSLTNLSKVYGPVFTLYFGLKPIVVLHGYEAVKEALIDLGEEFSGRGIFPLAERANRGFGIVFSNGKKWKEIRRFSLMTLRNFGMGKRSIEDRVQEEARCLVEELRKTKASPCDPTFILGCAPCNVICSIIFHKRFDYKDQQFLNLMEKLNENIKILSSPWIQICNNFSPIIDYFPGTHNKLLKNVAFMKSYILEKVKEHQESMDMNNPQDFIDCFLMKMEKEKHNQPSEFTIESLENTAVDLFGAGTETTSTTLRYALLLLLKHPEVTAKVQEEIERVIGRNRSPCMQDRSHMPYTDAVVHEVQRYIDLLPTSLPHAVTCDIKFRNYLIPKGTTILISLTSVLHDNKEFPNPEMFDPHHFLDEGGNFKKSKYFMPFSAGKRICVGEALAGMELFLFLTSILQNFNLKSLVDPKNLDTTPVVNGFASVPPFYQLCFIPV

On to `Cc1nc2c([C@H](C)c3ccc(C(F)(F)F)c(F)c3)nn(CCO)c2c(=O)[nH]1`, for which the IC50 was above 60 µM in series [1]; 1.8 µM in series [2]; 3.5 µM in series [3]; 23 µM in series [4]; 27 µM in series [5]; above 75 µM in [6]. The IC50 is above 50 µM in series [7], above 50 µM in series [8], 18 µM in [9] and 6.2 µM in series [10]. Further, the clearance in [11] was found to be 24 mL/min/kg. The same molecule showed a half-life in series [12] of 3.1 h. Besides, the MRT in [13] was 2.5 h. Moreover, the solubility kinetic amounted to 117 µM (≈ 45 µg/mL) in [14], 148 µM (≈ 56.9 µg/mL) in series [15] and 115 µM (≈ 44.2 µg/mL) in [16]. For the same molecule, the INH in [17] is above 50 µM; in series [18] it was 44 µM; in series [19] it was above 50 µM; in series [24], 9.6 µM. This molecule returned an inhibition at 10 µM in [20] of 16%. Further, the fraction unbound is 0.049 in series [21], 0.035 in series [22] and 0.03 in [23].

As for `Cc1nc2c([C@H](C)c3ccc(C(C)(C)C)cc3)nn(CCF)c2c(=O)[nH]1`, the IC50 in [1] was above 60 µM; in series [2], 5.7 µM; in series [3], 3.3 µM; in series [4] it was 21 µM; in [5], 11 µM; in series [6], above 75 µM. Besides, the IC50 in series [7] is above 50 µM; in series [8], above 50 µM; in series [9], 5.8 µM; in series [10], 0.6 µM. The molecule further registered a clearance in series [11] of 49 mL/min/kg. In [12], this molecule had a half-life of 1.4 h. For the same molecule, the mean residence time MRT in series [13] is 0.8 h. Further, the solubility kinetic amounted to 60 µM (≈ 21.4 µg/mL) in [14], 177 µM (≈ 63.1 µg/mL) in series [15] and 20 µM (≈ 7.13 µg/mL) in [16]. The INH is above 50 µM in series [17], above 50 µM in series [18], above 50 µM in series [19] and 17 µM in [24]. In addition, the inhibition at 10 µM in series [20] turned out to be 45%. For the same molecule, the results for the unbound share (fraction unbound) in [21], in [22] and in series [23] were 0.014, 0.016 and 0.009, respectively.
